Laboratory results taken from patent publication US12721857B2 (priority 2021, dated 2026).
Read-outs that look alike come from different tables or passages of the source.

How the values were obtained:
[1] = target: acetylcholinesterase (AChE) (Homo sapiens, UniProt P22303); assay: In vitro acetylcholinesterase activity assay; assay type: biochemical
Protocol: In the AChE assay, a reaction mixture containing DCB was incubated at 20° C. in the dark for 10 min, and 10 μL of AChE solution was then added. For measuring in vitro AChE activity, the test solutions contained DCB at various concentrations, including 5, 25, 50, 100, 200, and 400 µg/mL (FIGS. 13A and 13B). After AChE was added, the reaction mixture was incubated at 20° C. for 10 min, and the absorbance was measured at 405 nm.

[2] = system: Staphylococcus haemolyticus; assay: Agar disk diffusion on urine cultures, Staphylococcus haemolyticus; assay type: cell-based
Excerpt: (§1) Agar disk diffusion testing was used for antimicrobial susceptibility testing. The test provides qualitative results by categorizing susceptible, intermediate or resistant bacteria. Agar disk diffusion testing cannot distinguish bactericidal and bacteriostatic effects. Moreover, the agar disk-diffusion method is not appropriate to determine the minimum inhibitory concentration (MIC), as it is impossible to quantify the amount of the antimicrobial agent diffused into the agar medium. The advantages of this method, mainly simplicity and low cost, have contributed to its common use for the antimicrobial screening of plant extracts, essential oils, and other drugs.
(§2) The study has been performed on 47 urine samples collected from patients diagnosed with urinary tract infection (UTI), before instituting any type of therapy. Several types of pathogens were identified from the urine cultures performed: Escherichia coli-34 cases; Klebsiella pneumoniae-six cases; Proteus mirabilis-one case; Staphylococcus haemolyticus-one case; Enterococcus faecalis-two cases; Candida albicans-three cases. The susceptibility testing of the pathogens has been performed using DCB-impregnated microdisks to identify the optimal value that induces a significant inhibition of microbial culture development, compared to certified antibiotic/antifungal microdisks. The antibiogram/antifungal was performed on the Müller-Hinton (MH)/Sabouraud medium, and the results obtained using DCB-impregnated microdisks are presented in the Table 7, compared to the action of the reference microdisks.

Enterococcus faecalis = assay: Agar disk diffusion on urine cultures, Enterococcus faecalis; assay type: cell-based
Excerpt: as §1, §2

Klebsiella pneumoniae = assay: Agar disk diffusion on urine cultures, Klebsiella pneumoniae; assay type: cell-based
Excerpt: as §1, §2

Proteus mirabilis = assay: Agar disk diffusion on urine cultures, Proteus mirabilis; assay type: cell-based
Excerpt: as §1, §2

Escherichia coli = assay: Agar disk diffusion on urine cultures, Escherichia coli; assay type: cell-based
Excerpt: as §1, §2

Candida albicans = assay: Agar disk diffusion on urine cultures, Candida albicans; assay type: cell-based
Excerpt: as §1, §2

[3] = oral exposure, within 24-96 hours of ingestion; cited from earlier work
[4] = system: pathogens identified from urine cultures of patients with urinary tract infection; assay: Antibiotic/antifungal screening on urine cultures, all pathogens together; assay type: cell-based
Excerpt: as §1
as §2, with “The antibiogram/antifungal was performed on the Müller-Hinton (MH)/Sabouraud medium, and the results obtained using DCB-impregnated microdisks are presented in the Table 7, compared to the action of the reference microdisks.” left out

DPPH scavenging assay = assay type: biochemical
BALB/c mice = assay: In vivo DCB toxicity (acute, subchronic, chronic)
Protocol: (§3) In vivo DCB toxicity: The laboratory animals and the experimental protocol for determining acute, subchronic and chronic toxicity were established in accordance with the Organization for Economic Co-operation and Development (OECD) Guidelines for Testing of Chemicals. The toxicodynamic experiment was performed on groups of 10 BALB/c mice, eight weeks old, with an average weight of 25 g, the number of females and males being equally distributed (five for each group), which were administered different doses of DCB, at various intervals, as follows: • (i) for the acute experiment (at 24 hours): • (a) per os (p.o.), by oral gavage, five different doses of DCB in distilled water: 5 mg/kg body weight (b.w.), 50 mg/kg b.w., 300 mg/kg b.w., 2000 mg/kg b.w. and 5000 mg/kg b.w.; • (b) intra-peritoneal (i.p), a single dose of DCB, in saline: 50 mg/kg b.w.; • (ii) for the subacute experiment (lasting 28 days), three different daily doses of DCB in drinking water: 50 mg/kg b.w., 300 mg/kg b.w. and 1000 mg/kg b.w.; • (iii) for the chronic experiment (lasting 90 days), three different daily doses of DCB in drinking water: 50 mg/kg b.w., 300 mg/kg b.w. and 1000 mg/kg b.w. Throughout the duration of the experiment, the condition of the animals was monitored daily, at the same hour every day (during morning). Also, the animals were maintained in standard conditions of temperature, humidity, and lighting. Food and water were administered ad libitum. Standard Conditions Include: • A 14-hour light/10-hour dark cycle or 12 light/12 dark cycle; • A temperature of 65-75° F. (~18-23° C.); and • A humidity of 40-60%.
(§4) The control mice were monitored and maintained under the same conditions, only that instead of the DCB they received: • (i) for the acute experiment: (a) distilled water, p.o., by oral gavage and (b) saline, i.p., respectively; • (ii) for the subacute experiment and for the chronic one: only the drinking water normally consumed. […]

[5] = In vivo DCB toxicity (acute, subchronic, chronic); design: species or system mice; conditions: both sexes, BALB/c, mouse, in vivo, po; acute, p.o. administration in mice; read-out: median lethal dose (LD50)
Protocol: as §3, §4

[6] = assay type: in vitro ADME
Excerpt: FIG. 11 is the in vitro simulation of DCB digestion: stomach (gastric phase, at pH 1.2 and pH 4.5) and duodenum (small intestinal phase, at pH 7.2). (DCB: Chlorogenoborate diester complex);
DCB is protected from acids or/and enzymes in the stomach and small intestine. Chlorogenic acids are, generally, resistant to acid environment and digestive enzymes. […] The DCB complex is dissociated in the colon by borate group transfer to cis-diol sugars, e.g., fructose and sialic acid, in bacteria in the microbiome in the gut mucus membrane. The sugar/borate complexes have a high association constant. […] At a gastric pH of 1.2, DCB undergoes about 50% degradation. When there is food in the stomach, after a meal, the stomach pH can raise to as high as 4-5. Under conditions prevailing after a meal (pH 4.5), DCB undergoes <6% degradation. Under conditions prevailing in the intestines (pH 7.2), DCB undergoes <4% degradation. Thus, when administered with a meal, DCB is protected in the gastrointestinal tract and works as a classical prebiotic. Alternatively, DCB may be administered in a dosage form with an enteric coating which is stable and protects DCB from stomach acids, but which dissolves or breaks down at pH values in the intestines. Suitable enteric polymers include methyl (meth)acrylate-(meth)acrylic acid copolymers, cellulose acetate phthalate (CAP), cellulose acetate succinate, hydroxypropyl methyl cellulose phthalate, hydroxypropyl methyl cellulose acetate succinate, polyvinyl acetate phthalate, and similar polymers.

L929 cells = assay type: cell-based; conditions: mouse, 24 h
Protocol: In vitro DCB cytotoxicity: The viability of L929 cells treated for 24 hours with different concentrations of DCB was tested by the 3-(4,5-dimethylthiazol-2-yl)-2,5-diphenyltetrazolium bromide (MTT) assay. The MTT assay is commonly used for cytotoxicity, viability, and cell proliferation studies. The treatment of cells with MTT allows the assessment of oxidative metabolism and cellular response to external factors that can have a positive or negative effect on cell survival in culture. This quantitative colorimetric method is based on the reduction of the yellow-colored compound MTT to a dark blue formazan. The reduction of MTT, achieved by mitochondrial enzymes, e.g., succinate dehydrogenase, is directly proportional to the number of viable cells, being an index of cellular/mitochondrial integrity. The optical density is evaluated spectrophotometrically, resulting in a direct relationship between absorbance, dye concentration, and the number of viable and metabolically active cells.
In multi-well plates, L929 cells were plated at a cell concentration of 10^4 cells/cm^2. MTT (1 mg/ml, in a culture medium without serum) and DCB was added to each well. […] The resulting solution was densitometered at 550 nm, there being a direct proportional relationship between the recorded optical density and the number of metabolically active cells.

acetylcholinesterase (AChE), sequence (P22303 32-614, species assumed): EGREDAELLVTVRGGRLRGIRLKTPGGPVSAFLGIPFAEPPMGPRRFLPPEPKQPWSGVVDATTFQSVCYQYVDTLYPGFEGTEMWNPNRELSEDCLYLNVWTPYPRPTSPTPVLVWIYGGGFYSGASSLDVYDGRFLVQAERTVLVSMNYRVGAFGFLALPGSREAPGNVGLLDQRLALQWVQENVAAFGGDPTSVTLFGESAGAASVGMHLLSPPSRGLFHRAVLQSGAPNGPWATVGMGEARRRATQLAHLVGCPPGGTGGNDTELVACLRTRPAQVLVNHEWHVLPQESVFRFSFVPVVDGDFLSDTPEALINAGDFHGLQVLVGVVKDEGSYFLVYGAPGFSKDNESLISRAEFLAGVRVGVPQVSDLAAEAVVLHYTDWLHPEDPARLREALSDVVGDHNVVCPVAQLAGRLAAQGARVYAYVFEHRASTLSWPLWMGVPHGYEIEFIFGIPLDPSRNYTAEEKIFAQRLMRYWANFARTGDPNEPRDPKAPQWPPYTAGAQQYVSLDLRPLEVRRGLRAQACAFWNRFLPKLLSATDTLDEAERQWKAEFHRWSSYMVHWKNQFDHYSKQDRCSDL

SMILES: O=C(/C=C/c1ccc(O)c(O)c1)O[C@@H]1C[C@](O)(C(=O)O)C[C@@H](O)[C@H]1O [CA, Chlorogenic acid, reference compound]
- IC50 [1]: 243 µM
- inhibition at 110 µg/mL ([1]; read-out: inhibition of AChE activity): > 80%

SMILES: CO[C@@]1(NC(=O)Cc2cccs2)C(=O)N2C(C(=O)O)=C(COC(N)=O)CS[C@@H]21 [Cefoxitin, reference compound]
- Inhibition diameter (Ø, mm] of microbial culture ([2]; certified microdisk): 25 mm
- Inhibition diameter (Ø, mm] of microbial culture (Enterococcus faecalis; certified microdisk): 23-26 mm

SMILES: O=C(O)c1cn(C2CC2)c2cc(N3CCNCC3)c(F)cc2c1=O [Ciprofloxacin, reference compound]
- Inhibition diameter (Ø, mm] of microbial culture (Klebsiella pneumoniae; certified microdisk): 27-34 mm
- Inhibition diameter (Ø, mm] of microbial culture (Proteus mirabilis; certified microdisk): 33 mm
- Inhibition diameter (Ø, mm] of microbial culture (Escherichia coli; certified microdisk): 28-35 mm

SMILES: OC(Cn1cncn1)(Cn1cncn1)c1ccc(F)cc1F [Fluconazole, reference compound]
- Inhibition diameter (Ø, mm] of microbial culture (Candida albicans; certified microdisk): 29-33 mm

SMILES: OB(O)O [BA, Boric acid]
- BA absorbed [3]: 81-95%

SMILES: O=C(/C=C/c1ccc2c(c1)O[B-]1(O2)Oc2ccc(/C=C/C(=O)O[C@@H]3C[C@](O)(C(=O)O)C[C@@H](O)[C@H]3O)cc2O1)O[C@H]1C[C@@](O)(C(=O)O)C[C@H](O)[C@@H]1O (stereo partly shown) [DCB, diester chlorogenoborate]
- antimicrobial activity compared with certified microdisks ([4]; 50 μM DCB-impregnated microdisks): comparable to, or superior to, that of the certified microdisks
- influence on the growing pathogens ([4]; 0.025 to 2.5 μM DCB): little or no influence on the growing pathogens
- Inhibition diameter (Ø, mm] of microbial culture ([2]; 0.025 μM DCB microdisk): 0 mm
- Inhibition diameter (Ø, mm] of microbial culture ([2]; 2.5 μM DCB microdisk): 0 mm
- Inhibition diameter (Ø, mm] of microbial culture ([2]; 5.0 μM DCB microdisk): 11 mm
- Inhibition diameter (Ø, mm] of microbial culture ([2]; 50 μM DCB microdisk): 27 mm
- antioxidant activity relative to CA (DPPH scavenging assay): approximately six times more antioxidant activity than CA
- Inhibition diameter (Ø, mm] of microbial culture (Candida albicans; 0.025 μM DCB microdisk): 0 mm
- Inhibition diameter (Ø, mm] of microbial culture (Candida albicans; 2.5 μM DCB microdisk): 0 mm
- Inhibition diameter (Ø, mm] of microbial culture (Candida albicans; 5.0 μM DCB microdisk): 12-18 mm
- Inhibition diameter (Ø, mm] of microbial culture (Candida albicans; 50 μM DCB microdisk): 37-40 mm
- Inhibition diameter (Ø, mm] of microbial culture (Klebsiella pneumoniae; 0.025 μM DCB microdisk): 0 mm
- Inhibition diameter (Ø, mm] of microbial culture (Klebsiella pneumoniae; 2.5 μM DCB microdisk): 5-7 mm
- Inhibition diameter (Ø, mm] of microbial culture (Klebsiella pneumoniae; 5.0 μM DCB microdisk): 8-15 mm
- Inhibition diameter (Ø, mm] of microbial culture (Klebsiella pneumoniae; 50 μM DCB microdisk): 28-36 mm
- pKa (physchem): ~4
- Inhibition diameter (Ø, mm] of microbial culture (Proteus mirabilis; 0.025 μM DCB microdisk): 0 mm
- Inhibition diameter (Ø, mm] of microbial culture (Proteus mirabilis; 2.5 μM DCB microdisk): 0 mm
- Inhibition diameter (Ø, mm] of microbial culture (Proteus mirabilis; 5.0 μM DCB microdisk): 15 mm
- Inhibition diameter (Ø, mm] of microbial culture (Proteus mirabilis; 50 μM DCB microdisk): 35 mm
- Inhibition diameter (Ø, mm] of microbial culture (Enterococcus faecalis; 0.025 μM DCB microdisk): 0 mm
- Inhibition diameter (Ø, mm] of microbial culture (Enterococcus faecalis; 2.5 μM DCB microdisk): 0 mm
- Inhibition diameter (Ø, mm] of microbial culture (Enterococcus faecalis; 5.0 μM DCB microdisk): 12-14 mm
- Inhibition diameter (Ø, mm] of microbial culture (Enterococcus faecalis; 50 μM DCB microdisk): 26-29 mm
- histopathology of internal organs (BALB/c mice; acute (24 hours), subchronic (28 days) and chronic (90 days) experiments): normal aspects were highlighted for all internal organs analyzed
- acute toxicity class (OECD) (BALB/c mice; p.o. administration in mice): Category V, practically non-toxic
- LD50 at 24 h [5]: > 5000 mg/kg
- Inhibition diameter (Ø, mm] of microbial culture (Escherichia coli; 0.025 μM DCB microdisk): 0 mm
- Inhibition diameter (Ø, mm] of microbial culture (Escherichia coli; 2.5 μM DCB microdisk): 6-8 mm
- Inhibition diameter (Ø, mm] of microbial culture (Escherichia coli; 5.0 μM DCB microdisk): 8-14 mm
- Inhibition diameter (Ø, mm] of microbial culture (Escherichia coli; 50 μM DCB microdisk): 29-37 mm
- degradation ([6]; pH 1.2): about 50%
- degradation ([6]; pH 4.5): < 6%
- degradation ([6]; pH 7.2): < 4%
- impact on cell viability compared with 5% aqueous DMSO control (L929 cells): much less impact on MTT concentration, and thus cell viability, than a negative control treated with 5% aqueous DMSO
- IC50 [1]: 39.5 µM
- factor of AChE inhibition relative to CA [1]: about 3.4
